Assay results taken from paper PMC6211257, “Synthesis and cytotoxic activities of novel copper and silver complexes of 1,3-diaryltriazene-substituted sulfonamides” (Journal of Enzyme Inhibition and Medicinal Chemistry, 2018).
Values joined by “and” are separate entries in the source; they are usually repeats but may differ in a detail not shown here. Equal values may be shown once. Read-outs that look alike come from different tables or passages of the source.

Columns and labels:
[1] = system: prostate cancer (DU-145) cells; assay: MTT cytotoxicity assay, DU-145; format: cell-based, human; conditions: for IC50: MTT, 48 h
Text: (§1) The cells studied were obtained from the American Type Culture Collection (ATCC, Manassas, VA), and included human colorectal adenocarcinoma (DLD-1), cervix carcinoma (HeLa), breast adenocarcinoma (MDA-MB-231), colon adenocarcinoma (HT-29), endometrial adenocarcinoma (ECC-1), prostate cancer (DU-145 and PC-3), normal embryonic kidney (HEK-293), normal prostate epithelium (PNT-1A), and normal retinal pigment epithelium (ARPE-19) cells. As recommended by ATCC, cells were subjected to propagation using DMEM-F12 and RPMI-1640 media, with supplements 10% fetal bovine serum, L-glutamine (2 mM), penicillin (100 U/mL) and streptomycin ([…]) in a humidified atmosphere (5% CO2) at 37 °C. When the cultures reached 70–80% confluence, the cells were harvested using 0.25% trypsin (Sigma).
(§2) Cytotoxic activities were based on the reduction of (3–(4,5-dimethylthiazol-2-yl)-2,5-diphenyltetrazolium bromide) (MTT) by mitochondrial dehydrogenase of viable cells to give a blue formazan product which can be measured spectrophotometrically by UV–Vis measurements. MTT colorimetric assays were performed using 96 well plates. The cells were seeded in a 96 well plate at concentration 5.0 × 10^4 cells/well and incubated at 37 °C for 24 h. After treatment with various concentrations of the test compound (1, 5, 10, 25, 50, 100 and 200 μM), the cells were incubated for an additional 48 h at 37 °C. After incubation, the medium was removed, and the cells in each well were incubated with 100 μL MTT solution (5 mg/mL) for 4 h at 37 °C. MTT solutions were then discarded, and 100 μL DMSO were added to dissolve insoluble formazan crystals. Optical densities were measured at 570 nm (Varioskan Flash Multimode Reader, Thermo, Waltham, MA). Data were obtained from triplicate wells. Cytotoxic effects were determined in reference to negative controls (vehicle treated cells). Cytotoxicity was expressed as the mean percentage increase relative to the unexposed control (mean ± SD). All statistical analyses were performed using SPSS package program for Windows (Version 20, Chicago, IL). Control values were set to 0% cytotoxicity. Cytotoxicity data, where appropriate, were fitted to sigmoidal curves and a four-parameter logistic model was used to calculate the IC50 values, the concentration of material causing 50% inhibition, compared to the untreated controls. 5-Fluorouracil (5-FU) was also used as a control agent[21]^,[22].

[2] = system: normal retinal pigment epithelium (ARPE-19) cells; assay: MTT cytotoxicity assay, ARPE-19; format: cell-based, human; conditions: 48 h, means of three independent experiments
Text: as §1, §2

[3] = system: breast adenocarcinoma (MDA-MB-231) cells; assay: MTT cytotoxicity assay, MDA-MB-231; format: cell-based, human; conditions: 48 h, means of three independent experiments
Text: as §1, §2

[4] = system: normal prostate epithelium (PNT-1A) cells; assay: MTT cytotoxicity assay, PNT-1A; format: cell-based, human; conditions: 48 h
Text: as §1, §2

[5] = system: endometrial adenocarcinoma (ECC-1) cells; assay: MTT cytotoxicity assay, ECC-1; format: cell-based, human; conditions: 48 h, means of three independent experiments
Text: as §1, §2

[6] = system: cervix carcinoma (HeLa) cells; assay: MTT cytotoxicity assay, HeLa; format: cell-based, human; conditions: for IC50: cancer cell, MTT, 48 h, means of three independent experiments
Text: as §1, §2

[7] = system: human colorectal adenocarcinoma (DLD-1) cells; assay: MTT cytotoxicity assay, DLD-1; format: cell-based; conditions: 48 h, means of three independent experiments
Text: as §1, §2

[8] = system: normal embryonic kidney (HEK-293) cells; assay: MTT cytotoxicity assay, HEK-293; format: cell-based, human; conditions: 48 h, means of three independent experiments
Text: as §1, §2

[9] = system: colon adenocarcinoma (HT-29) cells; assay: MTT cytotoxicity assay, HT-29; format: cell-based, human; conditions: 48 h, means of three independent experiments
Text: as §1, §2

[10] = system: prostate cancer (PC-3) cells; assay: MTT cytotoxicity assay, PC-3; format: cell-based, human; conditions: 48 h, means of three independent experiments
Text: as §1, §2

[11] = cancer cell, means of three independent experiments, read-out: IC50 DU-145
[12] = normal cell, means of three independent experiments, read-out: IC50 PNT-1A
[13] = Homo sapiens, DU-145, cancer cell, means of three independent experiments, read-out: IC50 DU-145
[14] = Homo sapiens, ARPE-19, normal cell
[15] = Homo sapiens, MDA-MB-231, cancer cell
[16] = Homo sapiens, PNT1A, normal cell, means of three independent experiments, read-out: IC50 PNT-1A
[17] = Homo sapiens, ECC-1, cancer cell
[18] = Homo sapiens, PC-3, cancer cell
[19] = Homo sapiens, DLD-1, cancer cell
[20] = Homo sapiens, HEK293, normal cell
[21] = Homo sapiens, HT-29, cancer cell

Structure (SMILES) | IC50 [1, 11] | IC50 ([2]; normal cell) | IC50 ([3]; cancer cell) | IC50 [4, 12] | IC50 ([5]; cancer cell) | IC50 [6] | IC50 ([7]; cancer cell) | IC50 ([8]; normal cell) | IC50 ([9]; cancer cell) | IC50 ([10]; cancer cell) | IC50 [1, 13] | IC50 [2, 14] | IC50 [3, 15] | IC50 [4, 16] | IC50 [5, 17] | IC50 ([6]; Homo sapiens, HeLa) | IC50 [10, 18] | IC50 [7, 19] | IC50 [8, 20] | IC50 [9, 21] | also measured
CC(=O)[O][Ag][N](N=Nc1ccc(F)cc1)c1cccc(S(N)(=O)=O)c1 [Compound L1-Ag] | 137 ± 16.5 µM | > 300 µM | 96.8 ± 9.6 µM | 210 ± 20.9 µM | 207 ± 25.6 µM | > 300 µM | 279 ± 12.9 µM | > 300 µM | 186 ± 16.5 µM |  |  |  |  |  |  |  |  |  |  |  | 
CC(=O)[O][Ag][N](N=Nc1cc(C)cc(C)c1)c1cccc(S(N)(=O)=O)c1 [Compound L5-Ag] | 100 ± 10.1 µM | 109 ± 11 µM | 148 ± 19.5 µM | 111 ± 11 µM | 136 ± 13.5 µM | 9.61 µM and 9.6 µM | 111 ± 9 µM | 30.5 ± 4.5 µM | 162 ± 16.1 µM | 112 ± 13.4 µM |  |  |  |  |  |  |  |  |  |  | 
COc1ccc(N=N[N]([Ag][O]C(C)=O)c2cccc(S(N)(=O)=O)c2)cc1 [Compound L2-Ag] | 18.6 µM | 22 ± 10.2 µM | 30.3 ± 3 µM | 17.5 ± 17.5 µM | 29.1 µM | 2.8 ± 0.1 µM | 31.6 µM | 17.8 ± 1.7 µM | 24.9 ± 2.5 µM | 28.2 µM |  |  |  |  |  |  |  |  |  |  | fold increased potency than the reference drug 5-FU ([6]; HeLa cells, ratio of IC50 values): 6.84 fold
CC(=O)[O][Cu-]1([O]C(C)=O)[N](c2cccc(S(N)(=O)=O)c2)N=[N+]1c1ccc(F)cc1 [Compound L1-Cu] | 105 ± 13.5 µM | 119 ± 13.5 µM | 117 ± 14.2 µM | 76.5 ± 8.5 µM | 26.2 ± 2.6 µM | 5.02 µM and 5 µM | 47.1 ± 4.7 µM | 68.8 ± 8.7 µM | 199 ± 24.3 µM | 102 ± 10.2 µM |  |  |  |  |  |  |  |  |  |  | 
COc1ccc(/N=N/Nc2cccc(S(N)(=O)=O)c2)cc1 [Compound L2, 3–(3-(4-methoxyphenyl)triaz-1-en-1-yl)] |  |  |  |  |  |  |  |  |  |  | 154 ± 25.6 µM | > 300 µM | 144 ± 2.4 µM | > 300 µM | > 300 µM | 768 ± 6.5 µM | 171 ± 20.5 µM | 223 ± 8.3 µM | 146 ± 13.4 µM | 265 ± 30 µM | 
COc1ccc(/N=N/Nc2cccc(S(N)(=O)=O)c2)cc1OC [Compound L4, 3–(3-(3,4-dimethoxyphenyl)triaz-1-en-1-yl) benzenesulfonamide] |  |  |  |  |  |  |  |  |  |  | 182 ± 23.4 µM | > 300 µM | 155 ± 2.6 µM | 237 ± 26.8 µM | > 300 µM | > 300 µM | 299 ± 32.3 µM | > 300 µM | > 300 µM | > 300 µM | 
COc1ccc(N=N[N]([Ag][O]C(C)=O)c2cccc(S(N)(=O)=O)c2)cc1OC [Compound L4-Ag] | 237 ± 28.5 µM | 285 ± 30.5 µM | > 300 µM | 139 ± 16.5 µM | 104 ± 10.3 µM | 139 ± 28 µM | 173 ± 10.3 µM | 5.5 ± 0.6 µM | 241 ± 28.5 µM | 137 ± 15.8 µM |  |  |  |  |  |  |  |  |  |  | 
COc1ccc([N+]2=N[N](c3cccc(S(N)(=O)=O)c3)[Cu-]2([O]C(C)=O)[O]C(C)=O)cc1 [Compound L2-Cu] | 116 ± 14.6 µM | 132 ± 15.6 µM | 50 ± 2.4 µM | 95.1 ± 11.1 µM | 39.5 ± 2.5 µM | 2.08 µM and 2.1 µM | 42.7 ± 3.3 µM | 159 ± 19.4 µM | 94.9 ± 9.4 µM | 65.3 ± 8.5 µM |  |  |  |  |  |  |  |  |  |  | 
Cc1cc(C)cc(NN=Nc2cccc(S(N)(=O)=O)c2)c1 [Compound L5, 3-(3-(3,5-dimethylphenyl)triaz-1-en-1-yl)benzenesulfonamide] |  |  |  |  |  |  |  |  |  |  | 97.8 ± 9.7 µM | > 300 µM | 144 ± 18.6 µM | 177 ± 20.5 µM | 132 ± 13.1 µM | 65.1 ± 4.5 µM | 131 ± 12.4 µM | 224 ± 12.4 µM | 103 ± 10.2 µM | 112 ± 16.5 µM | 
NS(=O)(=O)c1cccc(N/N=N/c2ccc(C(=O)O)cc2)c1 [Compound L3, 4–(3–(3-sulfamoylphenyl)triaz-2-en-1-yl) benzoic acide] |  |  |  |  |  |  |  |  |  |  | 186 ± 20.6 µM | > 300 µM | > 300 µM | > 300 µM | 197 ± 23.5 µM | > 300 µM | > 300 µM | > 300 µM | > 300 µM | > 300 µM | 
COc1ccc([N+]2=N[N](c3cccc(S(N)(=O)=O)c3)[Cu-]2([O]C(C)=O)[O]C(C)=O)cc1OC [Compound L4-Cu] | 160 ± 18 µM | 105 ± 13.5 µM | 206 ± 25.1 µM | 125 ± 14.8 µM | 308 ± 34.2 µM | 116 ± 9.2 µM | 58.4 ± 5.8 µM | 197 ± 23.5 µM | 199 ± 22.5 µM | 297 ± 32.4 µM |  |  |  |  |  |  |  |  |  |  | 
CC(=O)[O][Ag][N](N=Nc1ccc(C(=O)O)cc1)c1cccc(S(N)(=O)=O)c1 [Compound L3-Ag] | 4.8 ± 0.4 µM | 9.5 ± 0.9 µM | 9.8 ± 0.9 µM | 9.2 ± 0.9 µM | 16.2 ± 1.6 µM | 3.4 ± 0.2 µM | 3.3 ± 0.3 µM | 9.9 ± 0.9 µM | 10.1 ± 3.1 µM | 5.1 ± 0.5 µM |  |  |  |  |  |  |  |  |  |  | 
CC(=O)[O][Cu-]1([O]C(C)=O)[N](c2cccc(S(N)(=O)=O)c2)N=[N+]1c1cc(C)cc(C)c1 [Compound L5-Cu] | 32.4 ± 3.2 µM | 84.3 ± 8.4 µM | 26 ± 2.5 µM | 46.4 ± 4.6 µM | 97.6 ± 9.7 µM | 15.2 ± 1 µM | 58.8 ± 3.9 µM | 36.3 ± 3.6 µM | 84.4 ± 8.4 µM | 79.2 ± 8.5 µM |  |  |  |  |  |  |  |  |  |  | 
CC(=O)[O][Cu-]1([O]C(C)=O)[N](c2cccc(S(N)(=O)=O)c2)N=[N+]1c1ccc(C(=O)O)cc1 [Compound L3-Cu] | 58.3 ± 6.4 µM | > 300 µM | 48.3 ± 2.5 µM | 120 ± 13.5 µM | 362 ± 38.1 µM | 63.9 ± 4.3 µM | 65.2 ± 2.5 µM | 135 ± 15.6 µM | 205 ± 20.3 µM | 196 ± 22.6 µM |  |  |  |  |  |  |  |  |  |  | 
O=c1[nH]cc(F)c(=O)[nH]1 [Compound 5-FU, 5-Fluorouracil, reference compound] |  |  |  |  |  | 19.2 ± 1.2 µM |  |  |  |  | 37.3 ± 5.8 µM | 75.3 ± 7.5 µM | 22.4 ± 2.5 µM | 142 ± 18.6 µM | 30.6 ± 3.5 µM | 19.2 µM | 45.5 ± 4.5 µM | 50.2 ± 21 µM | 65.3 ± 8.6 µM | 24.2 ± 2.4 µM | 
NS(=O)(=O)c1cccc(N/N=N/c2ccc(F)cc2)c1 [Compound L1, 3–(3-(4-fluorophenyl)triaz-1-en-1-yl) benzenesulfonamide] |  |  |  |  |  |  |  |  |  |  | 29 ± 2.9 µM | 279 ± 33.8 µM | 104 ± 28.2 µM | 195 ± 23.5 µM | 239 ± 27.5 µM | 179 ± 16 µM | 168 ± 18.5 µM | 140 ± 11 µM | 132 ± 16.4 µM | 79.4 ± 15.4 µM | IC50 ([1]; Homo sapiens, DU-145, unit given as M, read-out: IC50 prostate cancer (DU-145)): 29 µM; selectivity between prostate cancer cell line (DU-145) and normal prostate cells (PNT1-A) ([1]; from IC50 values DU-145 vs PNT1-A): high selectivity; IC50 ([4]; Homo sapiens, PNT1A, unit given as M, read-out: IC50 normal prostate cells (PNT1-A)): 195 µM
